Legend:
[1] = acid stability: approximate half life in conc. ^2 HCl/^2 H2 O in C^2 H3 CN determined by ^1 H NMR; format: physicochemical; conditions: dcl/d2o in cd3cn; 10 μl conc. ^2 HCl/^2 H2 O in C^2 H3 CN (0.6 ml), 25° C., ^1 H NMR at 500 MHz
Method: | ^c In this test, the compound was treated with a mixture of 10 μl | conc. ^2 HCl/^2 H2 O in C^2 H3 CN (0.6 ml) at | 25° C. and the approximate half life was determined by ^1 H NM | at 500 MHz.

[2] = test system: U937 human histiocytic leukemia cells; test: antiproliferative effect in U937 human histiocytic leukemia cells relative to 1α,25(OH)2 D3; format: cell-based; conditions: number greater than 1 = higher antiproliferative activity
Method: ^a This test determines the antiproliferative effect in U937 human
histiocytic leukemia cells of the compound relative to
1α,25(OH)2 D3. A number greater than 1 indicates a higher
antiproliferative activity of the compound in question when compared to
1α,25(OH)2 D3. The test was performed exactly as
described: L. Binderup and E. Bramm, Biochem. Pharmacol., 37, (1988)

calcium metabolism = test: calciuric effect in rats relative to 1α,25(OH)2 D3 (calcium metabolism); format: in vivo; conditions: number smaller than 1 = less change in calcium excretion
Excerpt: ^b This test determines the calciuric effect in rats of the compound
relative to 1α,25(OH)2 D3. A number smaller than 1
indicates less change in calcium excretion of the compound in question
when compared to 1α,25(OH)2 D3. The test was, as above,
performed exactly as described: L. Binderup and E. Bramm, Biochem.

interleukins = conditions: Muller, K. et al. (1988); cited from earlier work
cells = conditions: Abe, E. et al. (1981); cited from earlier work
[3] = test system: sebaceous glands in the ears of male Syrian hamsters; conditions: topical application, Malloy, V. L. et al. (1989); cited from earlier work

SMILES | half-life [1] [min] | Calcium metabolism (calciuric effect) (calcium metabolism) | U937, inhib. of prolifer. [2] | effects and/or production of interleukins (interleukins) | cell differentiation and proliferation (cells) | size of sebaceous glands [3]
C=C1/C(=C\C=C2/CCC[C@]3(C)[C@@H]([C@@H](C)/C=C/C#CC(O)(CC)CC)CC[C@@H]23)C[C@@H](O)C[C@@H]1O [Compound 102, 1(S),3(R)-Dihydroxy-20(S)-(5-ethyl-5-hydroxy-hept-1(E)-en-3-yn-1-yl)-9,10-seco-pregna-5(Z),7(E),10(19)-triene] | 15 to 30 | 0.015 | 1.1 |  |  | 
C=C1/C(=C\C=C2/CCC[C@]3(C)[C@@H]([C@H](C)/C=C/C#CC(O)(CC)CC)CC[C@@H]23)C[C@@H](O)C[C@@H]1O [Compound 101, 1(S),3(R)-Dihydroxy-20(R)-(5-ethyl-5-hydroxy-hept-1(E)-en-3-yn-1-yl)-9,10-seco-pregna-5(Z),7(E),10(19)-triene] |  | 0.2 | 89 |  |  | 
C=C1/C(=C\C=C2/CCC[C@]3(C)[C@@H]([C@H](C)CCCC(C)(C)O)CC[C@@H]23)C[C@@H](O)C[C@@H]1O [1,25(OH)2 D3, 1α,25-dihydroxy-vitamin D3] |  |  |  | influences the effects and/or production of interleukins | able to stimulate the differentiation of cells and inhibit excessive cell proliferation | reduces the size of sebaceous glands

The next lines start with results.

half-life [1] [min] | Calcium metabolism (calciuric effect) (calcium metabolism) | SMILES | U937, inhib. of prolifer. [2] | effects and/or production of interleukins (interleukins) | cell differentiation and proliferation (cells) | size of sebaceous glands [3]
< 5 | 0.4 | C=C1/C(=C\C=C2/CCC[C@]3(C)[C@@H]([C@H](C)/C=C/C=C/C(O)(CC)CC)CC[C@@H]23)C[C@@H](O)C[C@@H]1O [EB1089, 1(S),3(R)-Dihydroxy-20(R)-(5'-ethyl-5'-hydroxy-hepta-1' (E),3'(E)-dien-1'-yl)-9,10-secopregna-5(Z),7(E), 10(19)-triene] | 68 |  |  | 
 | 0.005 | C=C1/C(=C\C=C2/CCC[C@]3(C)[C@@H]([C@H](C)/C=C/[C@@H](O)C4CC4)CC[C@@H]23)C[C@@H](O)C[C@@H]1O [Calcipotriol] | 1 |  |  | 
